# In patent US6359008B1, “Acylated aminoacids for increasing the uptake of selected substances by organisms” (Lovesgrove Research Limited, priority 1998, dated 2002):
# What was measured:
# Rainbow Trout = assay: Field trial of Corbinol as pigment adsorption enhancer in fish feed; format: in vivo
# Protocol: A field trial was conducted at a fish farm facility adjacent to the Rheidol hydroelectric station to establish a preliminary indication of the efficacy of Corbinol comprising 75 g palmitoylaminoproprionic acid with 925 g of silica talc carrier as a pigment adsorption enhancer. Approximately 250 Rainbow Trout were divided into two groups and held in separate tanks each 4 m×4 m×1 m. The fish were hand fed for a duration of 4 weeks, the diets for the two groups being: Control: Mainstream Trout Hi-Performance 40 Treated: Mainstream Trout Hi-Performance+Corbinol (1 kg/tonne) At the end of the trial 100 farm fish from each group were removed and individually weighed. Equal levels of flesh samples were bulked together forming 10 groups of 10 for both the control and treated diets. HPLC analysis was conducted using a Merck-Hitachi L-4250 UV-Vis detector following an isocratic method referred to in a Roche Ltd publication.
# [1] = Heat stability of the compound; format: physicochemical
# Excerpt: The high polar head group appears to provide the bio-activity of the compound without having to incorporate a phosphonic group therein.
structure (smiles),measurement,setting,value
CCCCCCCCCCCCCCCC(=O)NC(C)C(=O)O (centres unmarked) [2-palmitoylaminoproprionic acid],"uptake of selected compounds, in particular pigments, in organisms such as fish",Rainbow Trout,increase the uptake of selected compounds
same,heat stable to,[1],approximately 130 °C
